This is an account of results in patent US7494671B2, “Extract of Trapa natans and methods of using the same” (priority 2002, dated 2009).

Format in all cases: cell-based
What all share (details): 50 ul saturated solution in 1 ml of cell media, in vitro

One assay concerns HTB 72, melanoma cells. As to the kind of experiment: Cancer cell proliferation assay, HTB 72. The method, then:
(§1) […] For comparison purposes, the effects of two anticancer drugs, cisplatin and paclitaxel, on the growth of the three types of cancel cells were also determined in vitro.

For assay [1], the system named is Lncap, prostate cancer cells. Nature of the assay: Cancer cell proliferation assay, Lncap. As for the experimental part: as §1
Assay [2] has as its system SW 480, colorectal cancer cells. As to the kind of experiment: Cancer cell proliferation assay, SW 480. The method, then: as §1

The structures appear in SMILES notation.

`N.N.[Cl][Pt][Cl]` [Cisplatin, cisplatin]: in the assay on HTB 72, melanoma cells, the “Inhibition, % HTB 72” value is recorded as 93.78%. For the same compound, the “Inhibition, % Lncap” value in assay [1] worked out at 94.91%. Also, the “Inhibition, % SW 480” value in assay [2] is listed as 78.25%.
Take `CC(=O)O[C@H]1C(=O)[C@@]2(C)[C@H]([C@H](OC(=O)c3ccccc3)[C@]3(O)C[C@H](OC(=O)[C@H](O)[C@@H](NC(=O)c4ccccc4)c4ccccc4)C(C)=C1C3(C)C)[C@]1(OC(C)=O)CO[C@@H]1C[C@@H]2O` [Paclitaxel, paclitaxel]: the “Inhibition, % HTB 72” value with HTB 72, melanoma cells amounted to 22.61%. Further, the “Inhibition, % Lncap” value in assay [1] is listed as 57.98%. Further, the “Inhibition, % SW 480” value in assay [2] is on record as 0.0%.
